Assay results as given in patent US20240425464A1, “Substituted Monohydrazides as Potent Antifungal Agents” (University of Kentucky Research Foundation, priority 2023, published 2024).
Values after ≈ are worked out from the molar mass of the structure shown. Like-named read-outs stand apart in the source and are kept apart here.

Columns and labels:
Test in all cases: MIC determination by in vitro antifungal assay
[1] = system: Aspergillus fumigatus NRRL 163 (Q); assay type: cell-based; conditions: strain Q = A. fumigatus NRRL 163
Method in brief: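 Twofold dilutions spanning 0.06–31.3 μg/mL were incubated with fungi for 48 h at 35° C in MOPS-buffered RPMI 1640 (pH 7.0), following modified CLSI M27-A3 and M38-A2 methods. Yeast cells were grown overnight in YPD, set to OD600 0.12 (~1×10^6 CFU/mL), then diluted 1:100.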

[2] = system: A. fumigatus NRRL 5109 (R); assay type: cell-based, Aspergillus fumigatus; conditions: strain R = A. fumigatus NRRL 5109
Description: (§1) 10 mg/mL stock solutions of compounds 1a-9j were prepared in dimethyl sulfoxide (DMSO) and were stored at −20° C. in the dark. The antifungal agent amphotericin B (AmB) was purchased from VWR (Radnor PA, USA). AmB was dissolved in DMSO at a final concentration of 5 mg/mL and was stored at −20° C., protected from light. Candida albicans American Type Culture Collection (ATCC) 10231 (strain A), C. albicans ATCC 64124 (B), and C. albicans ATCC MYA-2876 (C) were obtained from Utah State University. C. albicans ATCC 90819 (D), C. albicans ATCC MYA-2310 (E), C. albicans ATCC MYA-1237 (F), C. albicans ATCC MYA-1003 (G), Candida glabrata ATCC 2001 (H), Candida krusei ATCC 6258 (I), Candida parapsilosis ATCC 22019 (J), Cryptococcus neoformans ATCC MYA-895 (M), Aspergillus terreus ATCC MYA-3633 (N), and Aspergillus flavus ATCC MYA-3631 (0) were obtained from the American Type Culture Collection (ATCC; Manassas, VA, USA). Aspergillus nidulans ATCC 38163 (P) was obtained from University of Kentucky. Clinically derived Aspergillus fumigatus NRRL 163 (Q), A. fumigatus NRRL 5109 (R), and A. fumigatus NRRL 6113 (S) were obtained from Northern Regional Research Laboratory (NRRL). Candida auris 384 (K), C. auris 390 (L), and fungal strains 381-400 (including 10 C. auris (AR Bank #381-390), 3 Candida duobushaemulonii (AR Bank #391, AR Bank #392, and AR Bank #394), 2 Candida haemulonii (AR Bank #393 and AR Bank #395), 1 Kodameae ohmeri (AR Bank #396), 1 C. krusei (AR Bank #397), 1 Candida lusitaniae (AR Bank #398), and 2 Saccharomyces cerevisiae strains (AR Bank #399 and AR Bank #400)) were part of a larger fungal library from the AR Bank maintained by the Centers for Disease Control and Prevention (CDC; Atlanta, GA, USA). Filamentous fungi and yeasts were cultivated at 35° C. in RPMI 1640 medium (with L-glutamine, without sodium bicarbonate, Sigma-Aldrich, St. Louis, MO) buffered to a pH of 7.0 with 0.165 M morpholinepropanesulfonic acid (MOPS) buffer (Sigma-Aldrich). For cytotoxicity assays, HepG2 and the mouse macrophage cell line J774A.1 were obtained from University of Kentucky. The human embryonic kidney cell line, HEK-293, was bought from the ATCC. Mammalian cells were grown in Dulbecco's Modified Eagle's Medium (DMEM) (from VWR) with 10% fetal bovine serum (FBS) (from VWR) and 1% Pen/Strep (from ATCC). Cell lines were cultured at 37° C. with 5% CO2 and passaged by trypsinization with 0.05% trypsin: 0.53 mM EDTA (from Sigma-Aldrich).
(§2) The MIC values of compounds 1a-9j against yeast cells (strains A-P and 381-400) were determined in 96-well plates as described in the CLSI documents M27-A3 and M38-A2 with minor modifications.^2 A single colony of freshly prepared yeast cells was used to inoculate 5 mL of yeast extract peptone dextrose (YPD) broth prior to incubation overnight with shaking at 200 rpm at 35° C. From the actively growing yeast culture, 100 µL were then transferred to 900 μL of RPMI 1640 medium and re-adjusted to achieve OD600 of 0.12 (˜1×10^6 CFU/mL). The cell suspension was further diluted to achieve 1:100 in RPMI 1640 medium. 100 μL of cells were added to the wells of a 96-well microtiter plates that contained 100 µL of the compound solution to obtain concentrations of 0.06-31.3 μg/mL of compounds 1a-9j or AmB prior to incubation for 48 h at 35° C.
(§3) Finally, the activity of these monohydrazides was explored against […] non-Candida strains: Cryptococcus neoformans ATCC MYA-895 (M), Aspergillus terreus ATCC MYA-3633 (N), Aspergillus flavus ATCC MYA-3631 (O), Aspergillus nidulans ATCC 38163 (P), Aspergillus fumigatus NRRL 163 (Q), A. fumigatus NRRL 5109 (R), and A. fumigatus NRRL 6113 (S) (Tables 1A and 1B). The double dilution method was used with concentrations ranging from 0.06 to 31.3 j·tg mL^−1 for monohydrazides 1a-9j, and the commercially available positive antifungal control amphotericin B (AmB).

[3] = system: A. fumigatus NRRL 6113 (S); assay type: cell-based, Aspergillus fumigatus; conditions: for MIC: strain S = A. fumigatus NRRL 6113
Description: as §1, §2, §3

[4] = Aspergillus fumigatus, NRRL163, read-out: MIC
[5] = Aspergillus fumigatus, NRRL5109, read-out: MIC
[6] = Aspergillus fumigatus, NRRL6113, read-out: MIC

Compound | MIC [1] [μg/mL^−1] | MIC [2] [μg/mL^−1] | MIC [3] [μg/mL^−1] | MIC (highest activity against strain S) [3] [j·tg mL^−1] | MIC [1, 4] [µg/mL] | MIC [2, 5] [µg/mL] | MIC [3, 6] [µg/mL]
COc1ccc(NNC(=O)c2ccc(F)cn2)cc1 [Compound 3f] | >31.3 | >31.3 | >31.3 |  |  |  | 
O=C(NNc1ccc(Cl)cc1)c1cccc(F)n1 [Compound 5e] |  |  |  | 15.6 |  |  | 
O=C(NNc1cccc(Cl)c1)c1ccccn1 [Compound 2b] | >31.3 | >31.3 | >31.3 |  |  |  | 
COc1ccc(NNC(=O)c2cccc(F)n2)cc1 [Compound 5f] |  |  |  | 15.6 | > 31.3 | > 31.3 | 15.6 (≈ 59.7 µM)
O=C(NNc1cc(F)ccc1F)c1ccccn1 [Compound 2h] |  |  |  |  | > 31.3 | 15.6 (≈ 62.6 µM) | > 31.3
COc1cccc(NNC(=O)c2ccc(Br)cn2)c1 [Compound 4c] |  |  |  |  | 15.6 (≈ 48.4 µM) | 7.8 (≈ 24.2 µM) | > 31.3
O=C(NNc1ccc(F)cc1)c1nc(F)ccc1F [Compound 8d] |  |  |  |  | 31.3 (≈ 117 µM) | 15.6 (≈ 58.4 µM) | > 31.3
O=C(NNc1cccc(Cl)c1)c1cnccn1 [Compound 9b] |  |  |  |  | > 31.3 | > 31.3 | > 31.3
O=C(NNc1ccc(F)cc1F)c1ccccn1 [Compound 2g] |  |  |  |  | > 31.3 | 15.6 (≈ 62.6 µM) | 31.3 (≈ 126 µM)
O=C(NNc1cccc(F)c1)c1ccc(F)cn1 [Compound 3a] | >31.3 | >31.3 | >31.3 |  |  |  | 
O=C(NNc1ccc(Cl)cc1)c1ccccn1 [Compound 2e] | >31.3 | 7.8 | 15.6 | 15.6 |  |  | 
COc1cccc(NNC(=O)c2ccc(F)cn2)c1 [Compound 3c] | >31.3 | >31.3 | >31.3 |  |  |  | 
O=C(NNc1ccc(F)cc1)c1ccccn1 [Compound 2d] |  |  |  | 15.6 | 31.3 (≈ 135 µM) | 7.8 (≈ 33.7 µM) | 15.6 (≈ 67.5 µM)
COc1ccc(NNC(=O)c2cnccn2)cc1 [Compound 9f] |  |  |  |  | 31.3 (≈ 128 µM) | 31.3 (≈ 128 µM) | 31.3 (≈ 128 µM)
O=C(NNc1ccc(F)cc1)c1cccc(F)n1 [Compound 5d] |  |  |  |  | 31.3 (≈ 126 µM) | 15.6 (≈ 62.6 µM) | 15.6 (≈ 62.6 µM)
O=C(NNc1ccc(F)cc1F)c1cnccn1 [Compound 9g] |  |  |  |  | > 31.3 | > 31.3 | > 31.3
O=C(NNc1cccc(F)c1)c1cnccn1 [Compound 9a] | >31.3 | >31.3 | >31.3 |  |  |  | 

Compound | MIC [1] [μg/mL^−1] | MIC [2] [μg/mL^−1] | MIC [3] [μg/mL^−1] | MIC (highest activity against strain S) [3] [j·tg mL^−1] | MIC [1, 4] [µg/mL] | MIC [2, 5] [µg/mL] | MIC [3, 6] [µg/mL]
O=C(NNc1cc(Cl)cc(Cl)c1)c1ccccn1 [Compound 2j] |  |  |  |  | > 31.3 | > 31.3 | > 31.3
O=C(NNc1cccc(F)c1)c1ccccn1 [Compound 2a] | >31.3 | >31.3 | >31.3 |  |  |  | 
COc1ccc(NNC(=O)c2ccc(F)cc2F)cc1 [Compound 1f] |  |  |  |  | > 31.3 | > 31.3 | > 31.3
O=C(NNc1cccc(F)c1)c1nc(F)ccc1F [Compound 8a] | >31.3 | >31.3 | >31.3 |  |  |  | 
COc1cccc(NNC(=O)c2ccccn2)c1 [Compound 2c] | 7.8 | 3.9 | >31.3 |  |  |  | 
O=C(NNc1cccc(F)c1)c1ccc(F)cc1F [Compound 1a] | >31.3 | >31.3 | >31.3 |  |  |  | 
O=C(NNc1cc(F)cc(F)c1)c1ccccn1 [Compound 2i] |  |  |  |  | ≤ 0.06 | ≤ 0.06 | 31.3 (≈ 126 µM)
C[C@@H]1[C@H](O)[C@@H](C)/C=C/C=C/C=C/C=C/C=C/C=C/C=C/[C@H](O[C@@H]2O[C@H](C)[C@@H](O)[C@H](N)[C@@H]2O)C[C@@H]2O[C@](O)(C[C@@H](O)C[C@@H](O)[C@H](O)CC[C@@H](O)C[C@@H](O)CC(=O)O[C@H]1C)C[C@H](O)[C@H]2C(=O)O [AmB, amphotericin B, reference compound] | 0.98 | 0.98 | 1.95 |  |  |  | 
COc1ccc(NNC(=O)c2nc(F)ccc2F)cc1 [Compound 8f] |  |  |  |  | 31.3 (≈ 112 µM) | 15.6 (≈ 55.9 µM) | 31.3 (≈ 112 µM)
O=C(NNc1ccc(F)cc1)c1ncc(F)cc1F [Compound 7d] |  |  |  |  | > 31.3 | > 31.3 | > 31.3
COc1ccc(NNC(=O)c2ncc(F)cc2F)cc1 [Compound 7f] |  |  |  |  | 31.3 (≈ 112 µM) | 31.3 (≈ 112 µM) | 31.3 (≈ 112 µM)
COc1cccc(NNC(=O)c2cnccn2)c1 [Compound 9c] |  |  |  |  | 15.6 (≈ 63.9 µM) | 7.8 (≈ 31.9 µM) | > 31.3
O=C(NNc1ccc(F)cc1)c1ccc(F)cc1F [Compound 1d] |  |  |  |  | > 31.3 | > 31.3 | > 31.3
O=C(NNc1cccc(F)c1)c1ncc(F)cc1F [Compound 7a] | >31.3 | >31.3 | >31.3 |  |  |  | 
O=C(NNc1cccc(F)c1)c1ccc(Br)cn1 [Compound 4a] | >31.3 | >31.3 | >31.3 |  |  |  | 
COc1ccc(NNC(=O)c2ccccn2)cc1 [Compound 2f] |  |  |  |  | > 31.3 | > 31.3 | 31.3 (≈ 129 µM)
